Tests used:
[1] = tested on: cells containing HSV-TK-m2; settings: published observations; cited from earlier work
mammalian TK enzymes = settings: cited from earlier work
[2] = [18F]FHBG whole body biodistribution by PET (FIG. 2); assay type: in vivo, human
From the text: FIG. 2 is whole body coronal images of [^18F]FHBG biodistribution in a healthy human subject at four distinct time periods after 4.53 mCi i.v. injection of the [^18F]FHBG.
In some embodiments, the clearance pattern in a subject determines the length of time delay for measuring background and determining, for example, [^18F]FHBG imaging activity. […] Accordingly, depending upon the organ and subject individual, some time may be required for background levels to decrease in order to measure HSV-TK gene expression. […] In these organ systems, a sufficient threshold for gene therapy suitability may be, for example, at least above 1.0 SUV, at least above 1.5 SUV, at least above 2.0 SUV, at least above 2.5 SUV, at least above 3.0 SUV, at least above 3.5 SUV or at least above 4.0 SUV.
In contrast, some delay may be needed in order to image signals above background levels in, for example, the liver and kidneys. See Yaghoubi et al. Nat. Protocols at vol. 1, p. 3073. Because of the background signals in these organ systems, a sufficient threshold for determination of suitability for gene therapy treatment may be, for example, at least 10% above background, at least 15% above background, at least 20% above background, at least 25% above background, at least 30% above background, at least 35% above background, at least 40% above background, at least 45% above background, at least 50% above background, at least 55% above background, at least 60% above background, at least 65% above background, at least 70% above background, at least 75% above background, at least 80% above background, at least 85% above background, at least 90% above background, at least 95% above background or at least 100% or more above background when measured after a predetermined amount of time. […] Accordingly, [^18F]FHBG signal measurements in the liver should not be taken until after [^18F]FHBG signal levels have decreased to background, approximately 1 to 1½ hours, depending upon clearance rate in each individual subject.

HSV-TK enzyme = settings: cited from earlier work
cancer cells = test: GCV mediated cancer cell kill assay after retroviral transduction; assay type: cell-based; settings: following retroviral transduction delivery
From the text: […]

[3] = healthy human subject, 45.3 minutes to 80.3 minutes
[4] = healthy human subject, 83.3 minutes to 155.6 minutes

## Nc1nc(O)c2ncn(COC(CO)CO)c2n1 [ganciclovir]
[1]
  duration of ganciclovir sufficient to kill the majority of cells containing HSV-TK-m2: 5 days

## Nc1nc2c(ncn2CCC(CO)C[18F])c(=O)[nH]1 (stereo not drawn) [[^18F]FHBG, 9-[4-[^18F]Fluoro-3-(hydroxymethyl)butyl]guanine]
Mammalian TK enzymes
  affinity for mammalian TK enzymes: relative low affinity
[2]; healthy human subject, 4.53 mCi i.v., after administration
  background [18F]FHBG signal in the heart and lungs: virtually no background
[2]; healthy human subject, 4.53 mCi i.v., between 7.6 and 42.6 minutes after administration
  [18F]FHBG levels in the liver, kidneys and bladder: high
[2]; [3]
  [18F]FHBG levels in the liver and kidneys: decreased significantly
  [18F]FHBG signal in the bladder: persistent high signal
[2]; [4]
  [18F]FHBG levels in the liver and kidneys: decreased even further
  [18F]FHBG signal in the bladder: maintenance of high signal levels
[2]; humans
  [18F]FHBG background in most tissues outside the lower abdomen: rapidly decreases
HSV-TK enzyme
  affinity as substrate for HSV-TK enzyme: high affinity substrate

B1: SEQ ID NO: 18: optimized HSV-TK polynucleotide: A168H, nuclear export sequence, double mutated NLS, codon optimized, splice corrected (nucleic acid)
DNA: GTCAGCGGCCGCACCGGTACGCGTCCACCATGGCCCTGCAGAAAAAGCTGGAAGAGCTGGAACTGGATGGCAGCTACCCCGGCCACCAGCACGCCAGCGCCTTCGACCAGGCCGCCCGCAGCCGCGGCCACAGCAACGGCAGCACCGCACTGCGGCCAGGATCTCAGCAGGAGGCCACCGAGGTGCGCCCCGAGCAGAAGATGCCCACCCTGCTGCGCGTGTACATCGACGGACCACACGGCATGGGCAAGACCACCACCACCCAGCTGCTGGTGGCCCTGGGCAGCCGCGACGACATCGTGTACGTGCCCGAGCCCATGACCTACTGGCGCGTGCTGGGCGCCAGCGAGACCATCGCCAACATCTACACCACCCAGCACCGCCTGGACCAAGGCGAGATCAGCGCCGGCGACGCCGCCGTGGTGATGACCAGCGCCCAGATTACAATGGGCATGCCCTACGCCGTGACCGACGCCGTGCTGGCACCACACATCGGCGGCGAGGCCGGCAGCAGCCACGCACCACCACCAGCACTGACCCTGATCTTCGACCGGCACCCAATCGCACACCTGCTGTGCTACCCGGCAGCACGCTACCTGATGGGCTCCATGACACCACAAGCCGTGCTGGCCTTCGTGGCCCTGATCCCACCAACACTGCCCGGCACCAACATCGTGCTGGGCGCCCTGCCCGAGGACCGCCACATCGACCGCCTGGCCAAGCGCCAGCGCCCCGGCGAGCGCCTGGACCTGGCCATGCTGGCCGCCATCCGCCGCGTGTACGGCCTGCTGGCCAACACCGTGCGCTACCTGCAGTGCGGCGGCAGCTGGCGCGAGGACTGGGGCCAGCTGAGCGGCACCGCCGTGCCACCACAGGGCGCCGAGCCACAGAGCAACGCCGGACCACGACCACACATCGGCGACACCCTGTTCACCCTGTTCCGGGCACCAGAGCTGCTGGCACCAAACGGCGACCTGTACAACGTGTTCGCCTGGGCCCTGGACGTGCTGGCCAAGCGCCTGCGCTCCATGCACGTGTTCATCCTGGACTACGACCAGTCACCGGCCGGCTGCCGCGACGCCCTGCTGCAGCTGACCAGCGGCATGGTGCAGACCCACGTGACAACACCCGGCAGCATCCCAACAATCTGCGACCTGGCCCGCACCTTCGCCCGCGAGATGGGCGAGGCCAACTAATAGGGATCCCTCGAGAAGCTTGTCA
Cancer cells
  pro-drug GCV enzyme activity and selectivity for ability to kill cancer cells: exhibited pro-drug GCV enzyme activity and selectivity

B2: HSV-TK gene A168H and mutated at amino acids 159-161 from LIF to IFL: HSV-TK gene A168H also mutated at amino acids 159-161 from LIF to IFL (nucleic acid)
DNA: GTCAGCGGCCGCACCGGTACGCGTCCACCATGGCCAGCTACCCCGGCCACCAGCACGCCAGCGCCTTCGACCAGGCCGCCCGCAGCCGCGGCCACAGCAACGGCAGCACCGCACTGCGGCCACGGCGCCAGCAGGAGGCCACCGAGGTGCGCCCCGAGCAGAAGATGCCCACCCTGCTGCGCGTGTACATCGACGGACCACACGGCATGGGCAAGACCACCACCACCCAGCTGCTGGTGGCCCTGGGCAGCCGCGACGACATCGTGTACGTGCCCGAGCCCATGACCTACTGGCGCGTGCTGGGCGCCAGCGAGACCATCGCCAACATCTACACCACCCAGCACCGCCTGGACCAAGGCGAGATCAGCGCCGGCGACGCCGCCGTGGTGATGACCAGCGCCCAGATTACAATGGGCATGCCCTACGCCGTGACCGACGCCGTGCTGGCACCACACATCGGCGGCGAGGCCGGCAGCAGCCACGCACCACCACCAGCACTGACCATCTTCCTGGACCGGCACCCAATCGCACACCTGCTGTGCTACCCGGCAGCACGCTACCTGATGGGCTCCATGACACCACAAGCCGTGCTGGCCTTCGTGGCCCTGATCCCACCAACACTGCCCGGCACCAACATCGTGCTGGGCGCCCTGCCCGAGGACCGCCACATCGACCGCCTGGCCAAGCGCCAGCGCCCCGGCGAGCGCCTGGACCTGGCCATGCTGGCCGCCATCCGCCGCGTGTACGGCCTGCTGGCCAACACCGTGCGCTACCTGCAGTGCGGCGGCAGCTGGCGCGAGGACTGGGGCCAGCTGAGCGGCACCGCCGTGCCACCACAGGGCGCCGAGCCACAGAGCAACGCCGGACCACGACCACACATCGGCGACACCCTGTTCACCCTGTTCCGGGCACCAGAGCTGCTGGCACCAAACGGCGACCTGTACAACGTGTTCGCCTGGGCCCTGGACGTGCTGGCCAAGCGCCTGCGCTCCATGCACGTGTTCATCCTGGACTACGACCAGTCACCGGCCGGCTGCCGCGACGCCCTGCTGCAGCTGACCAGCGGCATGGTGCAGACCCACGTGACAACACCCGGCAGCATCCCAACAATCTGCGACCTGGCCCGCACCTTCGCCCGCGAGATGGGCGAGGCCAACTAATAGGGATCCCTCGAGAAGCTTGTCA
Cancer cells; ganciclovir (GCV) pro-drug
  GCV mediated cancer kill activity: exhibited GCV mediated cancer cell kill activity
